What was measured:
D(1A) dopamine receptor = D(1A) dopamine receptor (Homo sapiens, UniProt P21728); test: DRUGMATRIX: Dopamine D1 radioligand binding (ligand: [3H] SCH-23390); type: cell membranes, Membrane; settings: cho; Not Active = under 50% inhibition at 10 µM
[1] = target: T1, C-C chemokine receptor type 4 (Homo sapiens, UniProt P51679); type: cell membranes, Membrane; settings: chem-1; further: in other assays of this panel Not Active means under 50% inhibition at 10 µM
T1 sequence (P51679 whole entry): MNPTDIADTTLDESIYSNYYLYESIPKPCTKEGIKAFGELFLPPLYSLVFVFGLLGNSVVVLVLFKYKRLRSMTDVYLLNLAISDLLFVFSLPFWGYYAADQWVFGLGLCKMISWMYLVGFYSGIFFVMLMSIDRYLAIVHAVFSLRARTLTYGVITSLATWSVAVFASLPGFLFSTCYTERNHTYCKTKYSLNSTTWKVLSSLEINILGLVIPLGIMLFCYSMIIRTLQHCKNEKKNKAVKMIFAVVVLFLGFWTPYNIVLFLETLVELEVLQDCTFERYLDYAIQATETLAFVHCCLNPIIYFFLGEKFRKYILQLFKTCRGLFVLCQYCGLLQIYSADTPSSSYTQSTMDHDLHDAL

[2] = target: T2, Cholecystokinin receptor type A (Homo sapiens, UniProt P32238); type: cell membranes, Membrane; settings: 1321-n1; further: in other assays of this panel Not Active means under 50% inhibition at 10 µM
T2 sequence (P32238 whole entry): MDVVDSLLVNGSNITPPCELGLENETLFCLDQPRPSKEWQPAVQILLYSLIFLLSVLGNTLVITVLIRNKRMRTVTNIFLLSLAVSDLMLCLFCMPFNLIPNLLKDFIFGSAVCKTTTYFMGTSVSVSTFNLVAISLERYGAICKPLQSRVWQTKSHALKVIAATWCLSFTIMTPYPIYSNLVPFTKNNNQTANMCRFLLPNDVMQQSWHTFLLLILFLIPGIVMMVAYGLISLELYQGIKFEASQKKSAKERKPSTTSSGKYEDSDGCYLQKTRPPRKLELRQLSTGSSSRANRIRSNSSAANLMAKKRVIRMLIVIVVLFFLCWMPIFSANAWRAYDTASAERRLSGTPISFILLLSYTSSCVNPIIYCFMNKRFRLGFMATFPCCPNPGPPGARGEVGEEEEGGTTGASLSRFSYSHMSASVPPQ

Caspase-1 = target: T3, Caspase-1 (Homo sapiens, UniProt P29466); parameters: species or system Escherichia coli;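 further: Caspase-1 enzyme inhibition assay with a peptide substrate; in other assays of this panel Not Active means under 50% inhibition at 10 µM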
T3 sequence (P29466 whole entry): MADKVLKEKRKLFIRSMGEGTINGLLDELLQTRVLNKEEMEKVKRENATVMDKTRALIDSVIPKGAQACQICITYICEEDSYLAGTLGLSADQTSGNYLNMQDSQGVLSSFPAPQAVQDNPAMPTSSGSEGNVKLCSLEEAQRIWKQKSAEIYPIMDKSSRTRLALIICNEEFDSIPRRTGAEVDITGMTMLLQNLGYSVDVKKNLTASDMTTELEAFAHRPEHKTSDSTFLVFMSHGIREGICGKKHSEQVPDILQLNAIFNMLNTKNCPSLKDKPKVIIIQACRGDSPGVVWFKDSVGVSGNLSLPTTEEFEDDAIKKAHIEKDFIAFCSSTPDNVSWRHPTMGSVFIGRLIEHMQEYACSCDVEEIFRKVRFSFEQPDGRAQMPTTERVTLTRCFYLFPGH

[3] = target: Kappa-type opioid receptor (Homo sapiens, UniProt P41145); test: DRUGMATRIX: Opiate kappa (OP2, KOP) radioligand binding (ligand: [3H] Diprenorphine); type: cell membranes, HEK293, Membrane; settings: hek293; Not Active = under 50% inhibition at 10 µM
Kappa-type opioid receptor, sequence (P41145 whole entry): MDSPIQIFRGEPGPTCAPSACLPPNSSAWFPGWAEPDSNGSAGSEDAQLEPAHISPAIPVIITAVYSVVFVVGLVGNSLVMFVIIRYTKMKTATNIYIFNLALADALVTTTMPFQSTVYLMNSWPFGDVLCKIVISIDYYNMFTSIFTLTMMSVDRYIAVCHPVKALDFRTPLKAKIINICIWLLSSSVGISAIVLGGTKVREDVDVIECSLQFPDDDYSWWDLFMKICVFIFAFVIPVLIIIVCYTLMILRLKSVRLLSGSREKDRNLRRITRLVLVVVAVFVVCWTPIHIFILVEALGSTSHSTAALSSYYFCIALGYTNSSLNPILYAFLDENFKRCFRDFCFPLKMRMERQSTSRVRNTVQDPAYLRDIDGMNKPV

Cytochrome P450 2A6 = target: T4, Cytochrome P450 2A6 (Homo sapiens, UniProt P11509); settings: bti-tn-5b1-4; further: in other assays of this panel Not Active means under 50% inhibition at 10 µM
T4 sequence (P11509 whole entry): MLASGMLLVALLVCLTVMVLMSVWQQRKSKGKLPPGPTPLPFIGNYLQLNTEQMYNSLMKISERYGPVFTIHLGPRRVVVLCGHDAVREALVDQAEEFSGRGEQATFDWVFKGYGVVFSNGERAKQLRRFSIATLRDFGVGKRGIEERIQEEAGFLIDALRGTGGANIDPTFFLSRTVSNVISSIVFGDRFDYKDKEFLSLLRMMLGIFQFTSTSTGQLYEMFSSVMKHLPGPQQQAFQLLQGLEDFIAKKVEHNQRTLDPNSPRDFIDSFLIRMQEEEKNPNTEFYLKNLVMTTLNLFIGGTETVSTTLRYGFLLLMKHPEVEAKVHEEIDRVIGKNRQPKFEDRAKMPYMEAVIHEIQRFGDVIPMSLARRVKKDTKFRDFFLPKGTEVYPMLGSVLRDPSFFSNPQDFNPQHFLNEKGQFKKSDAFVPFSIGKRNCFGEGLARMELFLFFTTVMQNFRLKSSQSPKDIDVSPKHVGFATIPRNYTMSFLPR

Cytochrome P450 2C19 = Cytochrome P450 2C19 (Homo sapiens, UniProt P33261); settings: bti-tn-5b1-4; further: in other assays of this panel Not Active means under 50% inhibition at 10 µM
Cytochrome P450 2C19, sequence (P33261 whole entry): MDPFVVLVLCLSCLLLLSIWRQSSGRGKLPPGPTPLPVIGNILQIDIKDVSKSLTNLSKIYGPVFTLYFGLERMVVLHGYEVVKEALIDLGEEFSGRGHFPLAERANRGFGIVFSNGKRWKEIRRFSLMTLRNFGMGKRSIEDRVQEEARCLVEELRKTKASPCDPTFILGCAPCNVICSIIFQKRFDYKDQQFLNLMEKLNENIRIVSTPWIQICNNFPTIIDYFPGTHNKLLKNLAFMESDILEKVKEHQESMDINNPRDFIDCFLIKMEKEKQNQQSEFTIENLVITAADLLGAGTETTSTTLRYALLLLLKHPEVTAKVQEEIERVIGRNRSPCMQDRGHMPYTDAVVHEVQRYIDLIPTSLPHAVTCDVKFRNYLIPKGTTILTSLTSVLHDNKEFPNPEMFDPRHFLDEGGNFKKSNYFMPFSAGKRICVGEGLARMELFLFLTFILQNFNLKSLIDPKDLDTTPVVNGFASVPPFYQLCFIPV

Calcitonin receptor = target: T5, Calcitonin receptor (Homo sapiens, UniProt P30988); type: cell membranes, Membrane; settings: t47d; further: in other assays of this panel Not Active means under 50% inhibition at 10 µM
T5 sequence (P30988 whole entry): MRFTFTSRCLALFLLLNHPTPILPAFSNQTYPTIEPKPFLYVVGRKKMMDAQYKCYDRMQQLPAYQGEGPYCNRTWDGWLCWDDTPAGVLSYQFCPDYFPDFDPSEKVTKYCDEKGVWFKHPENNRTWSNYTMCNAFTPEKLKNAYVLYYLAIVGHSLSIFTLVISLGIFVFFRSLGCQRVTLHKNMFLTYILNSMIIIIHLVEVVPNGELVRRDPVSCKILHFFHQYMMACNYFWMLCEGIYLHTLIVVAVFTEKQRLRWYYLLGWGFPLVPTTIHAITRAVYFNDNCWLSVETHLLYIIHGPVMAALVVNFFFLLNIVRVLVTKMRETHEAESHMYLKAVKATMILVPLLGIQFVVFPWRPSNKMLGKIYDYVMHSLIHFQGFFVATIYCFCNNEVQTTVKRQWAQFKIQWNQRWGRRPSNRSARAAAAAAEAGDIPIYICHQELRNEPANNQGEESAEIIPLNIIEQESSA

D(1A) dopamine receptor, sequence (P21728 whole entry): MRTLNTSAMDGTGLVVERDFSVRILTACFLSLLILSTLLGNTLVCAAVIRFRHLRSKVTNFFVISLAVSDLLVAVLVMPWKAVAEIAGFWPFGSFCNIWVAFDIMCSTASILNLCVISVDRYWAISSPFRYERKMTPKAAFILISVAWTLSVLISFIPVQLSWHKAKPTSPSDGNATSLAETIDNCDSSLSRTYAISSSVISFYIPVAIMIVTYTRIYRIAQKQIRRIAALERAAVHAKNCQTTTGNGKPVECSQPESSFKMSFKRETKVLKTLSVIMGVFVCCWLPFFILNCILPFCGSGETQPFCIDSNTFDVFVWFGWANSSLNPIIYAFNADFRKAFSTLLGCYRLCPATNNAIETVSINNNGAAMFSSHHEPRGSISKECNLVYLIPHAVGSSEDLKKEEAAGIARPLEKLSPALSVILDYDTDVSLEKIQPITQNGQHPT

CC(C)(C(=O)c1cccnc1)c1cccnc1 [METYRAPONE]
Not Active: IC50 (D(1A) dopamine receptor) | IC50 [1] | IC50 [2] | IC50 (Caspase-1) | IC50 [3] | IC50 (Cytochrome P450 2A6) | Ki (Cytochrome P450 2A6) | IC50 (Cytochrome P450 2C19) | Ki (Cytochrome P450 2C19) | IC50 (Calcitonin receptor)

Oc1ccc(OCc2ccccc2)cc1 [MONOBENZONE]
Not Active: IC50 (D(1A) dopamine receptor) | IC50 [1] | IC50 [2] | IC50 (Caspase-1) | IC50 [3] | IC50 (Cytochrome P450 2A6) | Ki (Cytochrome P450 2A6) | IC50 (Cytochrome P450 2C19) | Ki (Cytochrome P450 2C19) | IC50 (Calcitonin receptor)

CC(C)(Oc1ccc(C2CCCc3ccccc32)cc1)C(=O)O (stereo not given) [NAFENOPIN]
Not Active: IC50 (D(1A) dopamine receptor) | IC50 [1] | IC50 [2] | IC50 (Caspase-1) | IC50 [3] | IC50 (Cytochrome P450 2A6) | Ki (Cytochrome P450 2A6) | IC50 (Cytochrome P450 2C19) | Ki (Cytochrome P450 2C19) | IC50 (Calcitonin receptor)

CC(C)[C@H]1CC[C@H](C(=O)N[C@H](Cc2ccccc2)C(=O)O)CC1 [NATEGLINIDE]
Not Active: IC50 (D(1A) dopamine receptor) | IC50 [1] | IC50 [2] | IC50 (Caspase-1) | IC50 [3] | IC50 (Cytochrome P450 2A6) | Ki (Cytochrome P450 2A6) | IC50 (Cytochrome P450 2C19) | Ki (Cytochrome P450 2C19) | IC50 (Calcitonin receptor)

COc1ccc2[nH]c([S+]([O-])Cc3ncc(C)c(OC)c3C)nc2c1 (stereo not given) [OMEPRAZOLE]
Not Active: IC50 (D(1A) dopamine receptor) | IC50 [1] | IC50 [2] | IC50 (Caspase-1) | IC50 [3] | IC50 (Cytochrome P450 2A6) | Ki (Cytochrome P450 2A6) | IC50 (Cytochrome P450 2C19) | Ki (Cytochrome P450 2C19) | IC50 (Calcitonin receptor)

Cc1nccn1CC1CCc2c(c3ccccc3n2C)C1=O (stereo not given) [ONDANSETRON]
Not Active: IC50 (D(1A) dopamine receptor) | IC50 [1] | IC50 [2] | IC50 (Caspase-1) | IC50 [3] | IC50 (Cytochrome P450 2A6) | Ki (Cytochrome P450 2A6) | IC50 (Cytochrome P450 2C19) | Ki (Cytochrome P450 2C19) | IC50 (Calcitonin receptor)

O=C(C1CCCCC1)N1CC(=O)N2CCc3ccccc3C2C1 (stereo not given) [PRAZIQUANTEL]
Not Active: IC50 (D(1A) dopamine receptor) | IC50 [1] | IC50 [2] | IC50 (Caspase-1) | IC50 [3] | IC50 (Cytochrome P450 2A6) | Ki (Cytochrome P450 2A6) | IC50 (Cytochrome P450 2C19) | Ki (Cytochrome P450 2C19) | IC50 (Calcitonin receptor)

CCN(CC)CCOC(=O)c1ccc(N)cc1 [PROCAINE]
Not Active: IC50 (D(1A) dopamine receptor) | IC50 [1] | IC50 [2] | IC50 (Caspase-1) | IC50 [3] | IC50 (Cytochrome P450 2A6) | Ki (Cytochrome P450 2A6) | IC50 (Cytochrome P450 2C19) | Ki (Cytochrome P450 2C19) | IC50 (Calcitonin receptor)

CCCN(CCC)C(=O)C(CCC(=O)O)NC(=O)c1ccccc1 (stereo not given) [PROGLUMIDE]
Not Active: IC50 (D(1A) dopamine receptor) | IC50 [1] | IC50 [2] | IC50 (Caspase-1) | IC50 [3] | IC50 (Cytochrome P450 2A6) | Ki (Cytochrome P450 2A6) | IC50 (Cytochrome P450 2C19) | Ki (Cytochrome P450 2C19) | IC50 (Calcitonin receptor)

NC(=O)c1cnccn1 [PYRAZINAMIDE]
Not Active: IC50 (D(1A) dopamine receptor) | IC50 [1] | IC50 [2] | IC50 (Caspase-1) | IC50 [3] | IC50 (Cytochrome P450 2A6) | Ki (Cytochrome P450 2A6) | IC50 (Cytochrome P450 2C19) | Ki (Cytochrome P450 2C19) | IC50 (Calcitonin receptor)

OC(CCN1CCCCC1)(c1ccccc1)C1CCCCC1 (stereo not given) [TRIHEXYPHENIDYL]
Not Active: IC50 (D(1A) dopamine receptor) | IC50 [1] | IC50 [2] | IC50 (Caspase-1) | IC50 [3] | IC50 (Cytochrome P450 2A6) | Ki (Cytochrome P450 2A6) | IC50 (Cytochrome P450 2C19) | Ki (Cytochrome P450 2C19) | IC50 (Calcitonin receptor)

Cc1cc2cc3c(C)cc(=O)oc3c(C)c2o1 [TRIOXSALEN]
Not Active: IC50 (D(1A) dopamine receptor) | IC50 [1] | IC50 [2] | IC50 (Caspase-1) | IC50 [3] | IC50 (Cytochrome P450 2A6) | Ki (Cytochrome P450 2A6) | IC50 (Cytochrome P450 2C19) | Ki (Cytochrome P450 2C19) | IC50 (Calcitonin receptor)

CCCC(CCC)C(=O)O [VALPROIC ACID]
Not Active: IC50 (D(1A) dopamine receptor) | IC50 [1] | IC50 [2] | IC50 (Caspase-1) | IC50 [3] | IC50 (Cytochrome P450 2A6) | Ki (Cytochrome P450 2A6) | IC50 (Cytochrome P450 2C19) | Ki (Cytochrome P450 2C19) | IC50 (Calcitonin receptor)

CCC1=C[C@@H]2CN(C1)Cc1c([nH]c3ccccc13)[C@@](C(=O)OC)(c1cc3c(cc1OC)N(C)[C@H]1[C@@](O)(C(=O)OC)[C@H](OC(C)=O)[C@]4(CC)C=CCN5CC[C@]31[C@@H]54)C2 [VINORELBINE]
Not Active: IC50 (D(1A) dopamine receptor) | IC50 [1] | IC50 [2] | IC50 (Caspase-1) | IC50 [3] | IC50 (Cytochrome P450 2A6) | Ki (Cytochrome P450 2A6) | IC50 (Cytochrome P450 2C19) | Ki (Cytochrome P450 2C19) | IC50 (Calcitonin receptor)

— ChEMBL document CHEMBL1909046, “DrugMatrix in vitro pharmacology data”
